In PubChem BioAssay (NCI):
Where “and” joins values, the source holds several entries; their conditions need not be identical. Equal values may be shown once.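 Growth conditions: 96-well plates. Treatment: test compound, 48 hours, 5 concentrations. Analysis: linear interpolation between bracketing concentrations; unreached endpoints set to highest concentration. GI50 is the concentration that inhibits growth by half. TGI denotes the concentration required for complete inhibition of growth.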

Key:
Assay in all cases: NCI tumour cell line growth inhibition, 48 h
RXF 393 renal = system: RXF 393 renal
NCI/ADR-RES ovarian = system: NCI/ADR-RES ovarian
SNB-19 CNS = system: SNB-19 CNS
UO-31 renal = system: UO-31 renal
OVCAR-8 ovarian = system: OVCAR-8 ovarian
ACHN renal = system: ACHN renal
U251 CNS = system: U251 CNS
CCRF-CEM leukemia = system: CCRF-CEM leukemia
HCT-116 colon = system: HCT-116 colon
MCF7 breast = system: MCF7 breast

For CC[C@H]1CN2CCc3cc(OC)c(OC)cc3[C@@H]2C[C@@H]1C[C@H]1NCCc2cc(O)c(OC)cc21, the TGI (RXF 393 renal) was 0.0518 µM and 0.0717 µM, the TGI (NCI/ADR-RES ovarian) was > 100 µM and 10.7 µM and the TGI (SNB-19 CNS) was 0.0977 µM and 0.0271 µM. The TGI (UO-31 renal) was 0.15 µM and 1.17 µM, the TGI (OVCAR-8 ovarian) was 0.0519 µM and < 0.0323 µM and 0.165 µM and the GI50 (ACHN renal) was 0.0221 µM and < 0.0115 µM. For the same compound, the TGI (ACHN renal) was 0.0758 µM.

CC(=O)O/N=C/c1ncccc1OC(C)=O was tested, and the TGI (RXF 393 renal) was > 100 µM, the TGI (U251 CNS) was > 100 µM and the TGI (CCRF-CEM leukemia) was > 100 µM. For the same compound, the TGI (SNB-19 CNS) was > 100 µM, the TGI (UO-31 renal) was > 100 µM and the TGI (OVCAR-8 ovarian) was > 100 µM. For the same compound, the TGI (ACHN renal) was > 100 µM and the TGI (HCT-116 colon) was > 100 µM.

In the case of COC1=CC(O)(CC(N)=O)c2ccccc2C1=O (stereo not given), the TGI (RXF 393 renal) was > 100 µM, the TGI (U251 CNS) was > 100 µM and the TGI (CCRF-CEM leukemia) was > 100 µM. For the same compound, the TGI (SNB-19 CNS) was > 100 µM, the TGI (UO-31 renal) was > 100 µM and the TGI (OVCAR-8 ovarian) was > 100 µM. For the same compound, the TGI (ACHN renal) was > 100 µM and the TGI (HCT-116 colon) was > 100 µM.

With Cc1cc(N(CCC#N)S(C)(=O)=O)ccc1C=O the TGI (RXF 393 renal) was > 100 µM, the TGI (U251 CNS) was > 100 µM and the TGI (CCRF-CEM leukemia) was > 100 µM. For the same compound, the TGI (SNB-19 CNS) was > 100 µM, the TGI (UO-31 renal) was > 100 µM and the TGI (OVCAR-8 ovarian) was > 100 µM. For the same compound, the TGI (ACHN renal) was > 100 µM and the TGI (HCT-116 colon) was > 100 µM.

Compound CCC[CH2][Sn]([CH2]CCC)([O]C(=O)c1cc(F)cc(F)c1)[O]C(=O)c1cc(F)cc(F)c1 has a GI50 (RXF 393 renal) of 0.349 µM, a TGI (RXF 393 renal) of 1.33 µM and a GI50 (U251 CNS) of 0.615 µM. The TGI (U251 CNS) was 1.85 µM, the GI50 (SNB-19 CNS) was 1.5 µM and the TGI (SNB-19 CNS) was 2.83 µM. For the same compound, the GI50 (UO-31 renal) was 1.44 µM, the TGI (UO-31 renal) was 2.75 µM and the GI50 (OVCAR-8 ovarian) was 1.39 µM. It also gave a TGI (OVCAR-8 ovarian) of 2.68 µM, a GI50 (ACHN renal) of 1.33 µM and a TGI (ACHN renal) of 2.61 µM. For the same compound, the GI50 (HCT-116 colon) was 1.27 µM and the TGI (HCT-116 colon) was 2.54 µM.

For Cc1ccc(NC(=O)c2cccc([N+](=O)[O-])c2O)c([N+](=O)[O-])c1, the TGI (RXF 393 renal) was 23.6 µM, the TGI (U251 CNS) was 38.9 µM and the TGI (CCRF-CEM leukemia) was > 100 µM. For the same compound, the TGI (SNB-19 CNS) was 82.9 µM, the TGI (UO-31 renal) was 45.4 µM and the TGI (OVCAR-8 ovarian) was 30.1 µM. The TGI (ACHN renal) was 58.1 µM and the TGI (HCT-116 colon) was 30.3 µM.

For CCCN(CCCC(NC(C)=O)C(=O)NCc1ccccc1)C(=O)NC (stereo not given), the TGI (RXF 393 renal) was > 100 µM, the TGI (U251 CNS) was > 100 µM and the TGI (CCRF-CEM leukemia) was > 100 µM. The TGI (SNB-19 CNS) was > 100 µM, the TGI (UO-31 renal) was > 100 µM and the TGI (OVCAR-8 ovarian) was > 100 µM. The TGI (ACHN renal) was > 100 µM and the TGI (HCT-116 colon) was > 100 µM.

For OCCCN=NNc1ccc(-c2nc3ccccc3[nH]2)cc1, the GI50 (RXF 393 renal) was 4.06 µM, the TGI (RXF 393 renal) was 18 µM and the GI50 (U251 CNS) was 2.07 µM. For the same compound, the TGI (U251 CNS) was 4.76 µM, the GI50 (MCF7 breast) was 0.0891 µM and the TGI (MCF7 breast) was 2.4 µM. The GI50 (CCRF-CEM leukemia) was 0.644 µM, the TGI (CCRF-CEM leukemia) was > 100 µM and the GI50 (SNB-19 CNS) was 22.9 µM. The TGI (SNB-19 CNS) was 48.8 µM, the GI50 (UO-31 renal) was 23.9 µM and the TGI (UO-31 renal) was 78.1 µM. The GI50 (OVCAR-8 ovarian) was 3.12 µM, the TGI (OVCAR-8 ovarian) was > 100 µM and the GI50 (ACHN renal) was 24.4 µM. It also gave a TGI (ACHN renal) of 64 µM.

For N/N=C1\C(=O)N(C2CCCCC2)C(=O)C1C(=O)NC1CCCCC1 (stereo not given), the TGI (U251 CNS) was > 100 µM, the TGI (CCRF-CEM leukemia) was > 100 µM and the TGI (SNB-19 CNS) was > 100 µM. For the same compound, the TGI (UO-31 renal) was > 100 µM, the TGI (OVCAR-8 ovarian) was > 100 µM and the TGI (ACHN renal) was > 100 µM. For the same compound, the TGI (HCT-116 colon) was > 100 µM.

For COc1ccc(C2=NNC(=O)OC2c2ccccc2)cc1 (stereo not given), the TGI (RXF 393 renal) was > 100 µM, the TGI (U251 CNS) was > 100 µM and the TGI (CCRF-CEM leukemia) was > 100 µM. The TGI (SNB-19 CNS) was > 100 µM, the TGI (UO-31 renal) was > 100 µM and the TGI (OVCAR-8 ovarian) was > 100 µM. The TGI (ACHN renal) was > 100 µM and the TGI (HCT-116 colon) was > 100 µM.

With COc1ccc(/C(=N/NC(=O)NN)C(c2ccc(OC)cc2)C2(O)CNc3c(Cl)cc(Cl)cc32)cc1 (stereo not given) the TGI (RXF 393 renal) was > 100 µM, the TGI (U251 CNS) was > 100 µM and the TGI (CCRF-CEM leukemia) was > 100 µM. The TGI (SNB-19 CNS) was > 100 µM, the TGI (UO-31 renal) was > 100 µM and the TGI (OVCAR-8 ovarian) was > 100 µM. For the same compound, the TGI (ACHN renal) was > 100 µM and the TGI (HCT-116 colon) was > 100 µM.

For CCOC(=O)C(=O)Nc1c(F)cc(F)cc1Br, the TGI (RXF 393 renal) was > 100 µM, the TGI (U251 CNS) was > 100 µM and the TGI (CCRF-CEM leukemia) was > 100 µM. The TGI (SNB-19 CNS) was > 100 µM, the TGI (UO-31 renal) was > 100 µM and the TGI (OVCAR-8 ovarian) was > 100 µM. The TGI (ACHN renal) was > 100 µM and the TGI (HCT-116 colon) was > 100 µM.

In the case of CCOC(=O)N1CCc2cc(OC)c(OC)c3c2C1CC3=O (stereo not given), the TGI (RXF 393 renal) was > 100 µM, the TGI (U251 CNS) was > 100 µM and the TGI (CCRF-CEM leukemia) was > 100 µM. The TGI (SNB-19 CNS) was > 100 µM, the TGI (UO-31 renal) was > 100 µM and the TGI (OVCAR-8 ovarian) was > 100 µM. The TGI (ACHN renal) was > 100 µM and the TGI (HCT-116 colon) was > 100 µM.

With COc1cc(/C=C/c2cc(/C=C/c3ccc(O)c(OC)c3)n(-c3c(C)cccc3C)c(=O)n2)ccc1O the GI50 (U251 CNS) was 0.635 µM, the TGI (U251 CNS) was 4.08 µM and the GI50 (NCI/ADR-RES ovarian) was 1.42 µM. It also gave a TGI (NCI/ADR-RES ovarian) of 5.77 µM, a GI50 (SNB-19 CNS) of 2.38 µM and a TGI (SNB-19 CNS) of 9.19 µM. It also gave a GI50 (UO-31 renal) of 0.352 µM, a TGI (UO-31 renal) of 2.53 µM and a GI50 (OVCAR-8 ovarian) of 1.51 µM. For the same compound, the TGI (OVCAR-8 ovarian) was 8.16 µM, the GI50 (ACHN renal) was 0.399 µM and the TGI (ACHN renal) was 10.6 µM. For the same compound, the GI50 (HCT-116 colon) was 0.695 µM and the TGI (HCT-116 colon) was 3.38 µM.

For CC(C)C1OC(=O)C=C1Sc1ccccc1 (stereo not given), the TGI (RXF 393 renal) was > 100 µM, the TGI (U251 CNS) was > 100 µM and the TGI (MCF7 breast) was > 100 µM. For the same compound, the TGI (CCRF-CEM leukemia) was > 100 µM, the TGI (SNB-19 CNS) was > 100 µM and the TGI (OVCAR-8 ovarian) was > 100 µM. For the same compound, the TGI (ACHN renal) was > 100 µM and the TGI (HCT-116 colon) was > 100 µM.

For O=C(CC1(O)C(=O)Nc2ccccc21)c1ccccc1Cl (stereo not given), the TGI (RXF 393 renal) was > 100 µM, the TGI (SNB-19 CNS) was > 100 µM and the TGI (UO-31 renal) was > 100 µM. The TGI (OVCAR-8 ovarian) was > 100 µM, the TGI (ACHN renal) was > 100 µM and the TGI (HCT-116 colon) was > 100 µM.

With COc1ccc(C(O)/C(=N\NC(N)=S)c2nc3ccc([N+](=O)[O-])cc3[nH]c2=O)cc1OC (stereo not given) the TGI (RXF 393 renal) was > 100 µM, the TGI (U251 CNS) was > 100 µM and the TGI (CCRF-CEM leukemia) was > 100 µM. The TGI (UO-31 renal) was > 100 µM, the TGI (OVCAR-8 ovarian) was > 100 µM and the TGI (ACHN renal) was > 100 µM.
